# Experimental data from US12672653B2, “Pest management” (priority 2017, dated 2026).
# Where two headings read alike, the source gives them in different places.
# Key:
# Myzus persicae [1] = test: whole plant or invertebrate; settings: foliar; for LC50: read-out: LC50 (95% CI's)
# Myzus persicae [2] = settings: 96 hours exposure; first bioassay dose-response curve
# Musca domestica = test: Knockdown and mortality of houseflies exposed to treated tiles; type: in vivo
# Method: Each formulation was filled into a hand-held pump sprayer. The treatments were applied to tiles from a distance of 20 cm. The tile was placed on a 0.5 m^2 grid and the entire 0.5 m^2 was sprayed, including the tile, at a rate of 50 mL/m^2. To ensure the correct volume was applied, the pump sprayer was weighed before and after spraying.
# The tiles were left for two hours post-treatment to allow the formulation to dry on the tile, before evaluation started.
# A control tile that was not treated with any formulation (untreated) was also used.
# Ten mixed sex Musca domestica houseflies were placed in a plastic petri dish using a powered aspirator. The petri dish placed over a treated or control tile surface. The petri dish was perforated for ventilation with small holes and a cotton wool plug soaked in sugar solution provided moisture and plugged the insect introduction hole in the petri dish.
# The houseflies were constantly exposed to a treated or untreated tile surface. The exposure took place at a temperature of 22±2° C. and about 50% relative humidity (RH).
# After 30 minutes exposure, a piece of paper was placed over the tile surface to prevent contact of the houseflies with the treated or untreated tile. The houseflies were held at 22±2° C. and about 50% RH for 24 hours.
# Housefly knockdown was noted 15 minutes and 30 minutes after beginning of exposure and 1, 2, 3 and 4 hours after initial exposure.
# The above experiment was repeated four times to give five replicates. No statistical analysis was done.
# [3] = test system: Dorsal root ganglion (DRG) cells; test: Whole-cell patch-clamp current-clamp recording of dorsal root ganglion cells (membrane potential, action potentials); type: cell-based, Sprague-Dawley rats
# Method: (§1) Dorsal root ganglion (DRG) cells were obtained from young adult male Sprague-Dawley rats weighing 220-250 g. The rats were housed in groups of 4 in an air conditioned room on a 12 hour light/dark cycle with food and water available ad libitum.
# (§2) Animals were humanely killed and the lower thoracic and upper lumbar region DRG removed and stored in chilled phosphate buffered saline (PBS). The DRG were carefully trimmed and then digested using 2 mg/mL trypsin (type XII-S) and 2 mg/mL collagenase (type XI), freshly made up in PBS, for 45-60 mins in a shaking water bath at 37° C. Subsequent to extensive washing with PBS and then plating medium (PM; 50:50 mix of DMEM/Hams F12, supplemented with 10% foetal bovine serum, 100 U/mL penicillin and 100 μg/mL streptomycin), careful trituration of the DRG was carried out using sterile fire polished glass pipettes of decreasing diameter and the cells were plated on coated glass coverslips (BD Biosciences, BD Biocoat, poly-D-Lysine), contained in 35 mm tissue culture dishes so that the cells could be easily transferred to the recording chamber mounted on an Olympus IX51 […] microscope for electrophysiological recording. Cells were incubated under standard tissue culture conditions (36° C. in a humidified atmosphere of 5% CO2, 95% air) and were used within 48-72 hours of plating.
# (§3) Whole-cell patch-clamp recordings were conducted at room temperature ([…]) using an Axopatch 200B amplifier (Axon Instruments Inc., USA) with 3-7 MΩ electrodes, depending on the patch success rate and recording quality. Data were filtered and digitized appropriately. Current-clamp recordings were performed with pipette solution of the following composition: 140 mM KCl, 0.5 mM EGTA, 5 mM HEPES, 3 mM Mg-ATP and 3 mM Na-GTP (pH 7.3), adjusted to 310 mOsm/L with glucose. The bathing solution contained: 140 mM NaCl, 3 mM KCl, 2 mM MgCl2, 2 mM CaCl2, and 10 mM HEPES (pH 7.3), adjusted to 315 mOsm/L with glucose. Passive membrane properties (e.g. resting membrane potential (Vm)) were monitored during the first few minutes from establishing whole-cell access and periodically during recording. Evoked potential recordings commenced 3-5 minutes after establishing whole-cell configuration.
# (§4) Flavesone test solutions were prepared fresh from a stock solution (96.7% w/w) on the day of recording. 100 μL of flavesone composition was mixed with 100 µL of Tween 80 and diluted to 10 mL in artificial cerebrospinal fluid (aCSF) to give a final flavesone concentration of 1%. The pH of the 1% solution was adjusted to 7.3 with 1M NaOH and diluted to 0.5% and 0.25% flavesone concentration with aCSF containing 1% Tween 80 immediately prior to use. Test compounds were applied using a DAD-16VC fast perfusion system (ALA Scientific Instruments, USA) and compared to the results gathered using control flow. The control was aSCF with 1% Tween 80.
# (§5) Comparison samples of permethrin were prepared as 100 μM permethrin in […] (DMSO).
# (§6) All analysis was conducted using Clampfit (MDS Analytical Technologies) and Excel (Microsoft) software. Statistical comparisons between groups were performed using the Student's t-test with P<0.05 taken to identify a significant difference.
# sodium channels = test: Sodium conductance in the DRG (voltage clamp recording); type: cell-based, Sprague-Dawley rats; settings: for Normalised Na^+ Conductance Amplitude, Mean: Control = 100
# Method: as §1, §2, §3, §4, §5, §6
# Pyrethroids such as permethrin are known to be sodium channel modulators. Analysis of the effects of flavesone and permethrin on sodium conductance in the DRG was examined. […]
# Aedes aegypti L3 larvae = test: Mosquito larval topical dose-mortality assay (synergism); type: in vivo; settings: for LC50: Aedes aegypti, topical
# Method: The efficacy of a flavesone formulation against mosquito larvae was investigated together with investigation of the potential for synergistic action of flavesone and one or more technical grade insecticides. Dose-mortality assays were performed to evaluate the toxicity of technical grade insecticide, here the synthetic pyrethroid (SP) permethrin at various concentrations (minimum five dose points) alone and co-administered with flavesone at single point dose was performed. Assays were conducted using L3 larvae of the Liverpool (SP susceptible) and Puerto Rico (SP resistant) strains of the yellow fever mosquito, Aedes aegypti maintained in continuous culture at Purdue University, US. Larvae were transferred to a 24 well tissue plate using a wide-bore plastic transfer pipette, 5 larvae per well. The water was gently removed from the well with a 1 mL pipette and an equivalent amount of ddH2O was added. The appropriate volume of test compound was added to each of the four replicate wells per treatment and the plate gently swirled to ensure uniform mixing. The plate was placed in a test or growth chamber under constant conditions of 22-25° C. and about 75-85% relative humidity on a 12 h light/12 hr dark cycle. Assays were scored for the phenotypic endpoint of death/paralysis at 24, 48 and 72 hours post exposure. Each assay incorporated a positive (flavesone) and negative (vehicle only) control, and minimum of four technical replicates per dose of test chemistry. The data reported here represent three biological replicates.
# Pilot assays were first employed to determine dose of flavesone (LC50, LC25 or LC10 dose as determined in previous dose-mortality tests) appropriate for synergism assays. […] The Synergistic Ratio (SR) for insecticide+flavesone combination is also shown and the synergistic action evaluated as per the published studies of Ahmed and Matsumura (2012, Journal of Medical Entomology 49(6):1405-10) and Ahmed and Vogel (2015, Acta Tropica 155:1-5).
# [4] = 0.5% flavesone, Table 3, permethrin experiment
# [5] = voltage clamp recording configuration
smiles,measurement,setting,value
CC1(C)C(C=C(Cl)Cl)C1C(=O)OC(C#N)c1cccc(Oc2ccccc2)c1 (stereo not drawn) [Alpha-cypermethrin],mortality at 16 µg/mL,Myzus persicae [1]; 96 h,21.6%
same,mortality at 40 µg/mL,Myzus persicae [1]; 96 h,44.9%
same,mortality at 60 µg/mL,Myzus persicae [1]; 96 h,52.2%
same,mortality at 80 µg/mL,Myzus persicae [1]; 96 h,86.9%
same,LC50,Myzus persicae [1]; 96 h,44.6 µg/mL
"CC(C)C(=O)C1C(=O)C(C)(C)C(=O)C(C)(C)C1=O [Flavesone, 1-isobutyroyl-3,3,5,5-tetramethylcyclohexan-2,4,6-trione]",LC15,Myzus persicae [2],1200 mg a.i./L
same,LC30,Myzus persicae [2],1800 mg a.i./L
same,mortality,"Musca domestica; both rates (200 mg/mL & 100 mg/mL), 24 hours post initial exposure",100%
same,knockdown of houseflies,"Musca domestica; rates of 200 mg/mL & 100 mg/mL, after 15 minutes exposure",100%
same,effect on potassium channels,[3],activates one or more potassium channels
same,input resistance in DRG neurones,[3],reduced input resistance
same,Vm (mV) Mean,[3]; 0.25% flavesone,−71.51 mV
same,Δ Vm (mV) Mean,[3]; 0.25% flavesone,−7.80 mV
same,"Normalised No. of Action Potentials @ Vh −50 mV, Mean","[3]; 0.5% flavesone, Control = 100",74.0
same,Vm (mV) Mean,"[3]; 0.5% flavesone, Table 2",−73.54 mV
same,Δ Vm (mV) Mean,"[3]; 0.5% flavesone, Table 2",−18.15 mV
same,Vm (mV) Mean,[3]; [4],−80.56 mV
same,Δ Vm (mV) Mean,[3]; [4],−19.63 mV
same,"Normalised Action Potentials Amplitude, Mean","[3]; 0.5% flavesone, Table 5, Control = 100",77.72
same,"Normalised Action Potentials Amplitude, Mean","[3]; 0.5% flavesone, Table 6, Control = 100",90.17
same,Vm (mV) Mean,[3]; 1% flavesone,−83.75 mV
same,Δ Vm (mV) Mean,[3]; 1% flavesone,−29.82 mV
same,"Normalised No. of Action Potentials @ Vh −50 mV, Mean","[3]; 1% flavesone, Control = 100",65.8
same,"Normalised Action Potentials Amplitude, Mean","[3]; 1% flavesone, Table 5, Control = 100",28.35
same,"Normalised Action Potentials Amplitude, Mean","[3]; 1% flavesone, Table 6, Control = 100",91.50
same,number of action potentials,"[3]; flavesone, Table 4",slightly reduced
same,amplitude of the action potentials,"[3]; flavesone, Table 5",reduced
same,action potential threshold,"[3]; flavesone, Table 6",no significant effect
same,resting potential from current-voltage relations,[3]; in the presence of flavesone,about −84 mV
same,mean resting potential (Vm),[3]; reduced from about −62 mV by flavesone,about −84 mV
same,effect on sodium channels,sodium channels,no effect on sodium channels
same,area under the curve (AUC),"sodium channels; 0.5% flavesone, 1% flavesone versus control and wash",no significant difference
same,"Normalised Na^+ Conductance Amplitude, Mean",sodium channels; 0.5% flavesone,84.65
same,"Normalised Na^+ Conductance Amplitude, Mean",sodium channels; 1% flavesone,77.56
same,sodium conductance amplitude,"sodium channels; flavesone, Table 10",no significant effect
same,channel inactivation/deactivation,sodium channels; [5],no effect
same,reduction of sodium channel conductance,"sodium channels; voltage clamp recording configuration, not significantly different to control",approximately 20%
same,mortality at 1200 µg/mL,Myzus persicae [1]; 96 h,10.9%
same,mortality at 1800 µg/mL,Myzus persicae [1]; 96 h,25.7%
same,LC50,Myzus persicae [1],2730 µg/mL
same,larval phenotype,Aedes aegypti L3 larvae; addition of flavesone,unambiguous “lethal” larval phenotype
CC1(C)C(C=C(Cl)Cl)C1C(=O)OCc1cccc(Oc2ccccc2)c1 (stereo not drawn) [Permethrin],mortality,"Musca domestica; 1.25 mg/mL rate, 24 hours post-initial exposure",62%
same,knockdown of houseflies,"Musca domestica; 2.5 mg/mL and 1.25 mg/mL, any assessment time",< 100%
same,mortality,"Musca domestica; 2.5 mg/mL rate, 24 hours post-initial exposure",72%
same,knockdown of houseflies,"Musca domestica; both rates (2.5 and 1.25 mg/mL), 1-hour post initial exposure",94%
same,effect on potassium channels,[3],no effect on potassium channels
same,input resistance in DRG neurones,[3],no effect on the input resistance
same,effect on mean resting potential (Vm),[3]; 100 μM,no effect
same,Vm (mV) Mean,[3]; 100 μM permethrin,−61.48 mV
same,Δ Vm (mV) Mean,[3]; 100 μM permethrin,−08 mV
same,"DRG Normalised No. of Action Potentials @ Vh −50 mV, Mean","[3]; 100 μM permethrin, Control = 100",17.95
same,"Normalised Action Potentials Amplitude, Mean","[3]; 100 μM permethrin, Table 8, Control = 100",99.46
same,"Normalised Action Potentials Amplitude, Mean","[3]; 100 μM permethrin, Table 9, Control = 100",100.20
same,number of action potentials,"[3]; permethrin 100 μM, Table 7",significantly reduced
same,amplitude of the actions,"[3]; permethrin 100 μM, Table 8",no effect
same,action potential threshold,"[3]; permethrin 100 μM, Table 9",no effect
same,effect on sodium channels,sodium channels,had an effect on sodium channels
same,"Normalised Na^+ Conductance Amplitude, Mean","sodium channels; 100 μM permethrin, Table 11",103.47
same,"Normalised Na^+ Conductance Amplitude, Mean","sodium channels; 100 μM permethrin, Table 12",282.56
same,sodium conductance amplitude,"sodium channels; permethrin, Table 11",little effect
same,area under the curve (AUC),"sodium channels; permethrin, Table 12",significant increase
same,channel inactivation/deactivation,sodium channels; [5],significantly prolonged channel inactivation
same,LC50,"Aedes aegypti L3 larvae; 24 h, read-out: LC50 (ng/ml) (95% CL), Permethrin Dose-Mortality, L3 larvae, Liverpool (LVP, SP susceptible) strain, 24 hours post exposure, Permethrin alone",26.7 ng/mL
same,LC50,"Aedes aegypti L3 larvae; 24 h, read-out: LC50 (ng/ml) (95% CL), Permethrin Dose-Mortality, L3 larvae, Puerto Rico (PRS, SP resistant) strain, 24 hours post exposure, Permethrin alone",280 ng/mL
same,LC50,"Aedes aegypti L3 larvae; 48 h, read-out: LC50 (ng/ml) (95% CL), Permethrin Dose-Mortality, L3 larvae, Liverpool (LVP, SP susceptible) strain, 48 hours post exposure, Permethrin alone",24.3 ng/mL
same,LC50,"Aedes aegypti L3 larvae; 48 h, read-out: LC50 (ng/ml) (95% CL), Permethrin Dose-Mortality, L3 larvae, Puerto Rico (PRS, SP resistant) strain, 48 hours post exposure, Permethrin alone",231 ng/mL
same,level of resistance to Permethrin,Aedes aegypti L3 larvae; Puerto Rico strain larvae as compared to Liverpool strain larvae,approximately 10 fold
Cc1nc(N(C)C)nc(OC(=O)N(C)C)c1C [Pirimicarb],mortality at 10 µg/mL,Myzus persicae [1]; 96 h,20.3%
same,mortality at 18.5 µg/mL,Myzus persicae [1]; 96 h,36.1%
same,mortality at 23 µg/mL,Myzus persicae [1]; 96 h,82.8%
same,mortality at 30 µg/mL,Myzus persicae [1]; 96 h,76.2%
same,LC50,Myzus persicae [1]; 96 h,19.7 µg/mL
